The values that follow come from US20240067651A1 (Biohaven Therapeutics Ltd., priority 2019, published 2024).

Each structure is given as a SMILES string.

Broadly, the Papp is the rate of passage across a membrane or cell layer, normalised by area and donor concentration.

Series [1] is described as follows: Caco-2 Permeability Assay. The following applies: human. Format: in vitro ADME, human. In outline: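 Bidirectional transport at 37 °C for 90 min, 10 μM donor concentration, with or without Pgp inhibitor, across 21-day Caco-2 monolayers with TEER >600 […] in HEPES-buffered HBSS, pH 7.4. LC-MS/MS of donor and receiver samples gives Papp, B→A/A→B efflux ratio and mass recovery.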
(Caco-2 monolayers are a common model of the intestinal barrier.)

Series [2] can be described thus: Stability in Simulated Gastric Fluid (SGF). Format: in vitro ADME. Further details: key: % parent compound remaining relative to 0-minute sample. In outline: (§1)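 2 μg/mL final; SGF + pepsin pH 1.2 or SIF + pancreatin pH 6.8; 37° C, 150 rpm, 0–60 min. ACN quench with propranolol IS, LC-MS/MS. % parent vs 0 min; t1/2 from ln plot.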
A short description of series [3]: Stability in Simulated Intestinal Fluid (SIF). Type of series: in vitro ADME. Further details: key: % parent compound remaining relative to 0-minute sample. In outline:
as §1

A short description of another series: Plasma Stability. Format: in vitro ADME, human. The essentials:
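Parent compound quantified by LC-MS/MS after acetonitrile precipitation, reported as percent of control remaining (triplicate). Incubation: 1 hour, 37° C, fresh human plasma, compound at 1 μM.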

Setting [4] is: Caco-2, pH 7.4, Caco-2 monolayer.
Where [5] appears, read: Caco-2, pH 7.4, Caco-2 monolayer, the 17th table.
The mark [6] stands for this setting: % remaining at 1 h in simulated gastric fluid, the 17th table.
The mark [7] stands for this setting: % remaining at 1 h in simulated intestinal fluid, the 17th table.
Where [8] appears, read: % remaining at 1 h in human plasma, the 17th table.
The mark [9] stands for this setting: % remaining at 1 h in simulated gastric fluid.
Setting [10] is: % remaining at 1 h in simulated intestinal fluid.
The mark [11] stands for this setting: % remaining at 1 h in human plasma.
Where [12] appears, read: Caco-2, pH 7.4, donor 10 μM, 90 minutes, 37° C., direction not given.
Where [13] appears, read: % remaining at 1 h, SGF with pepsin pH 1.2, 2 μg/mL, 37° C.
Setting [14] is: % remaining at 1 h, SIF with pancreatin pH 6.8, 2 μg/mL, 37° C.
Where [15] appears, read: % remaining at 1 h, human plasma, 1 μM, 37° C.
Setting [16] is: bare number, no % and no time given.
[17] abbreviates: simulated gastric fluid, remaining at 1 h.
[18] abbreviates: simulated intestinal fluid, remaining at 1 h.

`CC(C)C[C@H](N)C(=O)OCn1ccc2c1c(=O)[nH]c(=S)n2CCOC(C)C.O=C(O)C(F)(F)F` [Example 320, trifluoroacetic acid {4-oxo-1-[2-(propan-2-yloxy)ethyl]-2-sulfanylidene-1H,2H,3H,4H,5H-pyrrolo[3,2-d]pyrimidin-5-yl}methyl (2S)-2-amino-4-methylpentanoate]: in series [1] (Caco-2, pH 7.4), the Papp at 90 min, 10 µM was < 0.259 ×10⁻⁶ cm/s. The SGF in series [2] (% remaining @ 1 h) is reported as 48%@ 1 h. In series [3] (% remaining @ 1 h), the SIF is given as 42%@ 1 h. The “human Plasma stability” value in the series “Plasma Stability” (% remaining @ 1 h) is 98%@ 1 h.
Take `CC(C)OCCn1c(=S)n(COC(=O)[C@H](N)Cc2ccccc2)c(=O)c2c1ccn2COC(=O)[C@H](N)Cc1ccccc1.O=C(O)C(F)(F)F.O=C(O)C(F)(F)F` [Example 313, bis(trifluoroacetic acid) [3-({[(2R)-2-amino-3-phenylpropanoyl]oxy}methyl)-4-oxo-1-[2-(propan-2-yloxy)ethyl]-2-sulfanylidene-1H,2H,3H,4H,5H-pyrrolo[3,2-d]pyrimidin-5-yl]methyl (2R)-2-amino-3-phenylpropanoate]: the apparent permeability coefficient (Papp) at 90 min, 10 µM in series [1] (Caco-2, pH 7.4) came out at 0.49 ×10⁻⁶ cm/s. For the same compound, the SGF in series [2] (% remaining @ 1 h) is listed as 88% @ 1 h. The SIF in series [3] (% remaining @ 1 h) is listed as 51% @ 1 h. The “human Plasma stability” value in the series “Plasma Stability” (% remaining @ 1 h) amounted to 99% @ 1 h.
On to `CC(C)OCCn1c(=S)[nH]c(=O)c2c1ccn2COC(=O)Oc1cccc(F)c1` [Example 234], for which, in series [1] (setting [4]), the Papp at 90 min, 10 µM is < 0.33 ×10⁻⁶ cm/s. Besides, the SGF in series [2] (simulated gastric fluid, at 1 h) is 34% remaining. Further, the SIF in series [3] (simulated intestinal fluid, at 1 h) is listed as 8% remaining. Further, the “human Plasma stability” value in the series “Plasma Stability” (human plasma, at 1 h) is listed as 2% remaining.
As for `CCCCCOC(=O)OCn1c(=O)c2c(ccn2COC(=O)OCCCCC)n(CCOC(C)C)c1=S` [Example 218], the Papp at 90 min, 10 µM in series [1] (setting [5]) turned out to be 0.65 ×10⁻⁶ cm/s. Moreover, the SGF in series [2] (setting [6]) is 100% remaining. Further, the SIF in series [3] (setting [7]) is on record as 2% remaining. Besides, in “Plasma Stability” (setting [8]), the “human Plasma stability” value is listed as 74% remaining.
Regarding `CCOC(=O)N1CCCC1C(=O)NCCCCC(=O)OCn1ccc2c1c(=O)[nH]c(=S)n2CCOC(C)C.O=C(O)C(F)(F)F` (stereo not drawn) [Example 65], the apparent permeability (Papp) at 90 min, 10 µM in series [1] (setting [4]) came to 1.86 ×10⁻⁶ cm/s. Also, in series [2] (setting [9]), the SGF is recorded as 87% remaining. Also, the SIF in series [3] (setting [10]) was 89% remaining. Besides, in the series “Plasma Stability” (setting [11]), the “human Plasma stability” value worked out at 20% remaining.
For `CC(C)OCCn1c(=S)n(COCC[Si](C)(C)C)c(=O)c2c1ccn2COCC[Si](C)(C)C` [Example 71, 1-[2-(propan-2-yloxy)ethyl]-2-sulfanylidene-3,5-bis({[2-(trimethylsilyl)ethoxy]methyl})-1H,2H,3H,4H,5H-pyrrolo[3,2-d]pyrimidin-4-one], the Papp at 90 min, 10 µM in series [1] (setting [12]) was determined as 0.178 ×10⁻⁶ cm/s. Besides, the SGF in series [2] (setting [13]) is listed as 98%. Moreover, the SIF in series [3] (setting [14]) is on record as 88%. Besides, the “human Plasma stability” value in “Plasma Stability” (setting [15]) is 58%.
On to `CC(C)OCCn1c(=S)n(COCC[Si](C)(C)C)c(=O)c2[nH]ccc21` [Example 70, 1-[2-(Propan-2-yloxy)ethyl]-2-sulfanylidene-3-{[2-(trimethylsilyl)ethoxy]methyl}-1H,2H,3H,4H,5H-pyrrolo[3,2-d]pyrimidin-4-one], for which, in series [1] (Caco-2, pH 7.4, no unit printed at the place (tables the 9th table and the 10th table have no head)), the Papp at 90 min, 10 µM is 23.2 ×10⁻⁶ cm/s. Also, the SGF in series [2] (setting [13]) was 96%. In series [3] (setting [14]), the SIF is 99%. Also, in the series “Plasma Stability” (setting [15]), the “human Plasma stability” value was 99%.
The compound `CC(C)OCCn1c(SCOC(=O)NCc2ccccc2)nc(=O)c2[nH]ccc21` [Example 192] yielded a Papp at 90 min, 10 µM in series [1] (Caco-2, pH 7.4, Caco-2 monolayer, the 15th table) of 3.84 ×10⁻⁶ cm/s. Besides, in series [2] (% remaining at 1 h in simulated gastric fluid, the 15th table), the SGF is on record as 100% remaining. Further, the SIF in series [3] (% remaining at 1 h in simulated intestinal fluid, the 15th table) is listed as 50% remaining. In addition, in “Plasma Stability” (% remaining at 1 h in human plasma, the 15th table), the “human Plasma stability” value worked out at 97% remaining.
In series [1] (setting [4]), `CC(C)OCCn1c(=S)[nH]c(=O)c2c1ccn2COC(=O)[C@H]1CCN(C(=O)OC(C)(C)C)C1` [Example 130] returned a Papp at 90 min, 10 µM of 17.6 ×10⁻⁶ cm/s. In addition, in series [2] (setting [9]), the SGF was 61% remaining. For the same compound, in series [3] (setting [10]), the SIF is recorded as 64% remaining. Besides, the “human Plasma stability” value in “Plasma Stability” (setting [11]) is given as 4% remaining.
In the case of `COCCOCCC(=O)OCn1ccc2c1c(=O)[nH]c(=S)n2CCOC(C)C` [Example 93, {4-oxo-1-[2-(propan-2-yloxy)ethyl]-2-sulfanylidene-1H,2H,3H,4H,5H-pyrrolo[3,2-d]pyrimidin-5-yl}methyl 3-(2-methoxyethoxy)propanoate], in series [1] (setting [12]), the Papp at 90 min, 10 µM turned out to be 16.8 ×10⁻⁶ cm/s. In addition, the SGF in series [2] (setting [16]) is recorded as 99. Also, in series [3] (setting [16]), the SIF was 38. In the series “Plasma Stability” (setting [15]), the “human Plasma stability” value stood at 0% remaining.
On to `CC(C)OCCn1c(=S)[nH]c(=O)c2c1ccn2COC(=O)[C@@H]1CCC(=O)N1` [Example 86, {4-Oxo-1-[2-(propan-2-yloxy)ethyl]-2-sulfanylidene-1H,2H,3H,4H,5H-pyrrolo[3,2-d]pyrimidin-5-yl}methyl(2S)-5-oxopyrrolidine-2-carboxylate], for which the Papp at 90 min, 10 µM in series [1] (setting [12]) is 0.24 ×10⁻⁶ cm/s. Further, the SGF in series [2] (setting [13]) is on record as 98%. In addition, the SIF in series [3] (setting [14]) is given as 17%. For the same compound, the “human Plasma stability” value in the series “Plasma Stability” (setting [15]) came out at 0%.
On to `CC(=O)OCc1ccccc1N(C)C(=O)OCn1ccc2c1c(=O)nc(S)n2CCOC(C)C` [Example 222], for which, in series [1] (setting [5]), the Papp at 90 min, 10 µM was 2.05 ×10⁻⁶ cm/s. Also, the SGF in series [2] (setting [6]) is recorded as 98% remaining. The SIF in series [3] (setting [7]) is reported as 88% remaining. The “human Plasma stability” value in “Plasma Stability” (setting [8]) was 22% remaining.
Turning to `CC(C)OCCn1c(SCOC(=O)C2CCNCC2)nc(=O)c2c1ccn2COC(=O)CCC(=O)O` [Example 133], in series [1] (setting [4]), the Papp at 90 min, 10 µM is < 0.198 ×10⁻⁶ cm/s. The SGF in series [2] (setting [9]) is listed as 82% remaining. In addition, the SIF in series [3] (setting [10]) is 97% remaining. The “human Plasma stability” value in the series “Plasma Stability” (setting [11]) worked out at 7% remaining.
As for `CSCC[C@@H](N)C(=O)OCCC(=O)OCn1ccc2c1c(=O)[nH]c(=S)n2CCOC(C)C.O=C(O)C(F)(F)F` [Example 366, trifluoroacetic acid 3-oxo-3-({4-oxo-1-[2-(propan-2-yloxy)ethyl]-2-sulfanylidene-1H,2H,3H,4H,5H-pyrrolo[3,2-d]pyrimidin-5-yl}methoxy)propyl (2R)-2-amino-4-(methylsulfanyl)butanoate], the Papp at 90 min, 10 µM in series [1] (setting [4]) is < 0.76 ×10⁻⁶ cm/s. The SGF in series [2] (setting [17]) is on record as 76% remaining. Also, in series [3] (setting [18]), the SIF is on record as 2% remaining. The “human Plasma stability” value in “Plasma Stability” (human plasma, remaining at 1 h) is listed as 74% remaining.
As to `CSCC[C@H](N)C(=O)OCCCCC(=O)OCn1ccc2c1c(=O)[nH]c(=S)n2CCOC(C)C.O=C(O)C(F)(F)F` [Example 353, trifluoroacetic acid {4-oxo-1-[2-(propan-2-yloxy)ethyl]-2-sulfanylidene-1H,2H,3H,4H,5H-pyrrolo[3,2-d]pyrimidin-5-yl}methyl 5-{[(2S)-2-amino-4-(methylsulfanyl)butanoyl]oxy}pentanoate], the Papp at 90 min, 10 µM in series [1] (setting [4]) was 0.549 ×10⁻⁶ cm/s. Moreover, the SGF in series [2] (setting [17]) is 33% remaining. Moreover, the SIF in series [3] (setting [18]) is 66% remaining. In addition, the “human Plasma stability” value in the series “Plasma Stability” (human plasma, remaining at 1 h) turned out to be 3% remaining.
In series [1] (Caco-2, pH 7.4), `CC(C)OCCn1c(SCOC(=O)[C@H](Cc2ccccc2)NC(=O)OC(C)(C)C)nc(=O)c2c1ccn2COC(=O)[C@H](Cc1ccccc1)NC(=O)OC(C)(C)C` [Example 303, {[5-({[(2S)-2-{[(tert-butoxy)carbonyl]amino}-3-phenylpropanoyl]oxy}methyl)-4-oxo-1-[2-(propan-2-yloxy)ethyl]-1H,4H,5H-pyrrolo[3,2-d]pyrimidin-2-yl]sulfanyl}methyl (2S)-2-{[(tert-butoxy)carbonyl]amino}-3-phenylpropanoate] registered a Papp at 90 min, 10 µM of 5.56 ×10⁻⁶ cm/s. Further, the SGF in series [2] (% remaining @ 1 h) is recorded as 46% @ 1 h. In addition, the SIF in series [3] (% remaining @ 1 h) is listed as 1% @ 1 h. Also, the “human Plasma stability” value in the series “Plasma Stability” (% remaining @ 1 h) came out at 28% @ 1 h.
The matching figures for `CC(C)OCCn1c(=S)[nH]c(=O)c2c1ccn2COC(=O)[C@@H](NC(=O)OC(C)(C)C)C(C)C` [Example 294, {4-oxo-1-[2-(propan-2-yloxy)ethyl]-2-sulfanylidene-1H,2H,3H,4H,5H-pyrrolo[3,2-d]pyrimidin-5-yl}methyl (2S)-2-{[(tert-butoxy)carbonyl]amino}-3-methylbutanoate]: 26.8 ×10⁻⁶ cm/s, 98% @ 1 h, 3% @ 1 h and 98% @ 1 h.
`COCCOCCN(C)C(=O)OCSc1nc(=O)c2c(ccn2COC(=O)N(C)CCOCCOC)n1CCOC(C)C` [Example 89, (2-{[({[2-(2-methoxyethoxy)ethyl](methyl)carbamoyl}oxy)methyl]sulfanyl}-4-oxo-1-[2-(propan-2-yloxy)ethyl]-1H,4H,5H-pyrrolo[3,2-d]pyrimidin-5-yl)methyl N-[2-(2-methoxyethoxy)ethyl]-N-methylcarbamate]: the apparent permeability coefficient (Papp) at 90 min, 10 µM in series [1] (setting [12]) came out at 0.488 ×10⁻⁶ cm/s. Besides, in series [2] (setting [13]), the SGF was 99%. Besides, the SIF in series [3] (setting [14]) is on record as 65%. Moreover, the “human Plasma stability” value in “Plasma Stability” (setting [15]) amounted to 100%.
